Experimental data: ChEMBL document CHEMBL1150682, “Modiolides A and B, two new 10-membered macrolides from a marine-derived fungus” (2003)
Converted amounts (≈) assume the structure as drawn.

Legend:
[1] = test system: Neurospora crassa; test: Antimicrobial activity against Neurospora crassa; format: functional
[2] = test system: Micrococcus luteus; test: Antimicrobial activity against Micrococcus luteus; format: functional

SMILES | MIC [1] [µg/mL] | MIC [2] [µg/mL]
C[C@@H]1C[C@H](O)/C=C/[C@@H](O)/C=C\C(=O)O1 [MODIOLIDE A] | 33.3 (≈ 168 µM) | 16.7 (≈ 84.3 µM)
C[C@@H]1CC/C=C/[C@@H](O)/C=C\C(=O)O1 [MODIOLIDE B] | 33.3 (≈ 183 µM) | 16.7 (≈ 91.6 µM)
